Test results reported in ChEMBL document CHEMBL1157944, “Phytotoxic withanolides from Jaborosa rotacea” (J Nat Prod, 2006).
The source made the active and inactive calls. No cut-off for these calls is given here.

Columns and labels:
Assay type in all cases: functional, organism-based
Phalaris canariensis [1] = assay: Stimulation of radicle growth in Phalaris canariensis at 50 ug/ml
Phalaris canariensis [2] = assay: Phytotoxicity against Phalaris canariensis assessed as inhibition of radicle growth at 50 ug/ml
Lactuca sativa [3] = assay: Phytotoxicity against Lactuca sativa assessed as inhibition of radicle growth at 50 ug/ml
Lactuca sativa [4] = assay: Phytotoxicity against Lactuca sativa assessed as inhibition of germination at 50 ug/ml
Lactuca sativa [5] = assay: Phytotoxicity against Lactuca sativa assessed as inhibition of emergence rate index at 50 ug/ml

CC1=C(C)[C@H]2C(=O)[C@@H](C)[C@]3(O)CC[C@H]4[C@@H]5C[C@@H](O)[C@@]6(O)CC=CC(=O)[C@]6(C)[C@H]5C[C@@]2(OC1=O)[C@@]43C
Activity (Phalaris canariensis [1]): Active

CC1=C(C)C(=O)O[C@]2(C1)O[C@@]1(O)C[C@H]3[C@@H](C[C@@H](O)C4=CC=CC(=O)[C@@]43C)[C@@H]3CC[C@@](O)([C@@H]2C)[C@]31C
Activity (Phalaris canariensis [1]): Active

CC1=C(C)C(=O)O[C@]2(C1)O[C@@]1(O)C[C@H]3[C@@H](C[C@@H](O)[C@@]4(Cl)CC=CC(=O)[C@]34C)[C@@H]3CC[C@@](O)([C@@H]2C)[C@]31C
Activity (Phalaris canariensis [2]): Active

CC1=C(C)C(=O)O[C@]2(C1)O[C@@]1(O)C[C@H]3[C@@H](C[C@H](Cl)[C@]4(O)CC=CC(=O)[C@]34C)[C@@H]3CC[C@@](O)([C@@H]2C)[C@]31C
Activity (Lactuca sativa [3]): Active | Activity (Lactuca sativa [4]): Active | Activity (Lactuca sativa [5]): Active
